Drawing on patent US8158621B2, “Methods of treating or preventing autoimmune diseases with 2,4-pyrimidinediamine compounds” (Rigel Pharmaceuticals, Inc., priority 2002, dated 2012), this text covers IC50 for 71 compounds.

The first experiment concerns Human Jurkat T-cells (clone N). The experiment is described as follows: Jurkat T-cell activation (anti-TCR, CD69 upregulation). The format is cell-based.
Settings: not given
The essentials: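 Jurkat cells in RPMI + 5% FBS preincubated with compound 1 h at 37 °C, then stimulated with anti-TCR C305 at 500 ng/ml for 20 h. CD69 surface expression stained with anti-CD69-APC and read by flow cytometry; IC50 versus solvent-only control.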
On to `Oc1cccc(Nc2ncc(F)c(Nc3ccc4[nH]ncc4c3)n2)c1` [Compound R935268], for which the IC50 was 2.91 µM.

Compound `CNC(=O)COc1cccc(Nc2ncc(F)c(Nc3ccc(OC)c(CN(C)C)c3)n2)c1` [Compound R940321] returned a concentration for half-maximal inhibition (IC50) of 3.68 µM.

Compound `CNC(=O)COc1cccc(Nc2ncc(F)c(Nc3ccc4c(c3)C(=O)CCO4)n2)c1` [Compound R950345] had a half-maximal inhibitory concentration (IC50) of 6.09 µM.

Take `CCOC(=O)COc1ccc(Nc2ncc(C(F)(F)F)c(Nc3ccc(OCC(=O)OCC)cc3)n2)cc1` [Compound R925862]: the IC50 was above 10 µM.

The compound `CNC(=O)COc1ccc(Nc2ncc(F)c(Nc3ccc4c(c3)OCCO4)n2)cc1` [Compound R926708] registered an IC50 of 3.3 µM.

The compound `O=C(NC(CO)CO)c1cc2cc(Nc3ncc(F)c(Nc4ccc5c(c4)OCCO5)n3)ccc2o1` [Compound R926785] displayed an IC50 of 2.58 µM.

In turn, `COC(=O)Cn1ncc2ccc(Nc3ncc(F)c(Nc4cccc(O)c4)n3)cc21` [Compound R935215] returned a 50% inhibitory concentration (IC50) of 7.96 µM.

Compound `CC(=NO)c1cccc(Nc2ncc(F)c(Nc3cccc(C(C)=NO)c3)n2)c1` [Compound R950379] yielded an IC50 of 0.878 µM. Against the preceding compound, the IC50 is about 9.1-fold lower.

`CC(C)(CO)c1ccc(Nc2nc(Nc3ccc4c(c3)OCCO4)ncc2F)cc1` [Compound R935149] yielded a half-inhibitory concentration (IC50) above 10 µM.

Turning to `CC(C)Oc1ccc(Nc2nc(Nc3ccc4c(cnn4CCO)c3)ncc2F)cc1` [Compound R935255], the IC50 came to 0.668 µM.

`Cc1nc(COc2cccc(Nc3nc(Nc4ccc(OCC(N)=O)cc4)ncc3F)c2)no1` [Compound R945133] had an IC50 of 9.14 µM.

Compound `CNC(=O)COc1cccc(Nc2ncc(F)c(Nc3ccc4c(c3)N(C)C(=O)CO4)n2)c1` [Compound R909260] yielded an IC50 of 3.33 µM.

Take `COC(=O)Cn1ncc2ccc(Nc3nc(Nc4ccc(OC(C)C)cc4)ncc3F)cc21` [Compound R935218]: half-maximal inhibition (IC50) required 22.7 µM.

As to `Cc1cnc(Nc2ccc(OCc3nnnn3C)cc2)nc1Nc1cccc(O)c1` [Compound R920894], the IC50 is 2.02 µM. This IC50 lies about 11-fold lower than the previous one.

As for `CCOc1ccc(Nc2nc(Nc3cccc(OCC(=O)NC)c3)ncc2F)cc1` [Compound R926827], the midpoint of inhibition, the IC50, lay at 2.14 µM.

Compound `COC(=O)Cn1ncc2cc(Nc3ncc(F)c(Nc4cccc(O)c4)n3)ccc21` [Compound R935237] gave an IC50 above 10 µM.

Take `CNC(=O)COc1cccc(Nc2ncc(F)c(Nc3cccc(C(=O)c4ccccc4)c3)n2)c1` [Compound R950372]: it took 2.19 µM to reach half-maximal inhibition (IC50).

In turn, `CNC(=O)COc1cccc(Nc2ncc(F)c(Nc3cnc4c(c3)OCCN4)n2)c1` [Compound R945263] yielded an IC50 of 4.47 µM.

In the case of `OCC(O)COc1ccc(Nc2ncc(F)c(Nc3ccc4c(c3)OCCO4)n2)cc1` (centres unmarked) [Compound R935179], half-maximal inhibition (IC50) required 3 µM.

`COC(=O)COc1ccc(Nc2ccnc(Nc3ccc(OCC(=O)OC)cc3)n2)cc1` [Compound R926256] returned an IC50 above 10 µM.

In the case of `O=C(O)Cc1cccc(Nc2ncc(F)c(Nc3cccc(CC(=O)O)c3)n2)c1` [Compound R935117], the IC50 was above 10 µM.

In turn, `COC(=O)c1ccc(Cn2ncc3ccc(Nc4ncc(F)c(Nc5ccc6c(c5)OCCO6)n4)cc32)c(OC)c1` [Compound R935320] yielded an IC50 above 10 µM.

In the case of `CNC(=O)COc1cc(Nc2ncc(F)c(Nc3ccc(C)c(O)c3)n2)ccc1C` [Compound R926759], it took 1.71 µM to reach half-maximal inhibition (IC50).

As to `COc1ccc(-c2ccccc2)cc1Nc1ncc(F)c(Nc2cc(-c3ccccc3)ccc2OC)n1` [Compound R926400], the IC50 is above 10 µM.

Regarding `C[C@H](Nc1ncc(F)c(N[C@@H](C)[C@H](O)c2ccccc2)n1)[C@H](O)c1ccccc1` [Compound R925767], the IC50 is above 10 µM.

`Nc1cccc(Nc2nc(Nc3cccc(NCCOCc4ccccc4)c3)ncc2F)c1` [Compound R950176]: the IC50 was above 10 µM.

In turn, `Fc1cnc(Nc2ccc3cn[nH]c3c2)nc1Nc1ccc2c(c1)OCCO2` [Compound R935190] displayed an IC50 of 3.47 µM.

`Fc1cnc(Nc2ccc(OCCN3CCOCC3)cc2)nc1Nc1ccc2c(c1)OCCO2` [Compound R926709]: the IC50 was determined as 2.47 µM.

Consider `CNC(=O)COc1cccc(Nc2ncc(F)c(Nc3ccc(F)c(C)c3)n2)c1` [Compound R926923], for which the IC50 is 7.2 µM. Against the preceding compound, the IC50 is about 2.9-fold higher.

In turn, `O=C(CNc1cccc(Nc2ncc(F)c(Nc3cccc(NCCO)c3)n2)c1)N1CCNCC1` [Compound R950241] came in with a half-inhibitory concentration (IC50) of 5.19 µM.

`Oc1cccc(Nc2nc(Nc3ccc(OCc4nnn[nH]4)cc3)ncc2F)c1` [Compound R920818] gave an IC50 above 10 µM.

For `Cc1cc(Nc2ncc(F)c(Nc3ccc(O)c(C)c3)n2)ccc1O` [Compound R926469], the IC50 was above 10 µM.

Turning to `CNC(=O)COc1cccc(Nc2ncc(F)c(Nc3cccc([N+](=O)[O-])c3)n2)c1` [Compound R950261], half-maximal inhibition (IC50) was put at 17.4 µM.

`Cc1cc(Nc2nc(Nc3cccc(OCC(=O)N4CCNCC4)c3)ncc2F)cc(C)c1O` [Compound R945140]: the IC50 came to 2.09 µM.

With `COc1ccc(Nc2nc(NC3CCN(Cc4ccccc4)CC3)ncc2F)cc1OC` [Compound R940263], the IC50 turned out to be 10.1 µM.

`COC(=O)COc1cc(O)cc(Nc2ncc(F)c(Nc3cccc(O)c3)n2)c1` [Compound R926927] displayed an IC50 of 5.53 µM.

For `Cc1cc(Nc2nc(Nc3cccc(OCCN4CCOCC4)c3)ncc2F)cc(C)c1O` [Compound R940255], 1.51 µM corresponded to half-maximal inhibition (IC50).

Compound `CCOC(=O)COc1ccc(Nc2nc(Nc3ccc(OCC(=O)OCC)cc3)c(NC(=O)NC(=O)OCC)c(C(=O)OCC)n2)cc1` [Compound R926586] had an IC50 above 10 µM.

In the case of `COc1cc(C(=O)NS(=O)(=O)c2ccccc2C)ccc1Cn1ncc2ccc(Nc3ncc(F)c(Nc4cccc(O)c4)n3)cc21` [Compound R935324], the IC50 is above 10 µM.

`COc1cc(-c2ccccc2)c(C)cc1Nc1ncc(F)c(Nc2cc(C)c(-c3ccccc3)cc2OC)n1` [Compound R926401] registered an IC50 above 10 µM.

`CN(CCO)C(=O)COc1cccc(Nc2ncc(F)c(Nc3ccc4c(c3)OCCO4)n2)c1` [Compound R926766]: the midpoint of inhibition, the IC50, lay at 4.24 µM. This lies in the single-digit micromolar range.

On to `CCOC(=O)c1cnc(N[C@H](C(=O)OCC)C(C)C)nc1N[C@H](C(=O)OCC)C(C)C` [Compound R926527], for which the IC50 came out at 21.2 µM.

The same experiment, now with this note: Homo sapiens.
Turning to `CC(C)NC(=O)Oc1cccc(Nc2ncc(F)c(Nc3cccc(OC(=O)NC(C)C)c3)n2)c1` [Compound R926412], the IC50 was 2.38 µM.

The experiment is the same for the next values; noted with them: Homo sapiens, Jurkat.
On to `Fc1cnc(Nc2ccc(-n3cnc(Cl)c3Cl)cc2)nc1Nc1ccc2c(c1)OCCO2` [Compound R926788], for which the IC50 was above 10 µM.

As for `O=C1CCNC2=COc3ccc(Nc4nc(Nc5cccc(O)c5)ncc4F)cc3N12` [Compound R945237], the IC50 was 0.838 µM.

Compound `Fc1cc(Nc2ncc(F)c(Nc3ccc(C(F)(F)F)c(F)c3)n2)ccc1C(F)(F)F` [Compound R926018] came in with an IC50 above 10 µM.

`Oc1cccc(Nc2ncc(-c3ccc4c(c3)OCO4)c(Nc3cccc(O)c3)n2)c1` [Compound R925788]: 16.9 µM corresponded to half-maximal inhibition (IC50).

Consider `Fc1cnc(Nc2cccc(-c3nnn[nH]3)c2)nc1Nc1ccc2c(c1)OCCO2` [Compound R926843], for which the IC50 is above 10 µM.

For the compound `Fc1ccc(Nc2ncc(F)c(Nc3ccc4c(c3)OCCO4)n2)cc1` [Compound R926220], the IC50 was above 10 µM.

Consider `COc1ccc(-c2ccccc2)cc1Nc1ncc(C)c(Nc2cc(-c3ccccc3)ccc2OC)n1` [Compound R935000], for which the IC50 was above 10 µM.

`Oc1cccc(Nc2nc(Nc3cc(Cl)c(O)c(Cl)c3)ncc2F)c1` [Compound R926890] returned an IC50 of 11.3 µM.

For `Oc1cccc(Nc2nc(Nc3cccc(-c4nnn[nH]4)c3)ncc2F)c1` [Compound R926842], the IC50 is above 10 µM.

The compound `COCCOc1cccc(Nc2ncc(F)c(Nc3cccc(OCCOC)c3)n2)c1` [Compound R935076] came in with an IC50 above 10 µM.

The compound `Fc1cccc(Nc2ncc(F)c(Nc3ccc4c(c3)OCCO4)n2)c1` [Compound R926221] returned an IC50 above 10 µM.

Take `Oc1cccc(Nc2cc(Nc3cccc(O)c3)nc(Nc3cccc(O)c3)n2)c1` [Compound R926409]: the IC50 turned out to be 3.54 µM.

Compound `COc1ccc(Nc2nc(Nc3cccc(O)c3)ncc2F)c(OC)n1` [Compound R926887] returned an IC50 of 5.92 µM. This IC50 lies about 1.7-fold higher than the previous one.

With `Fc1cnc(Nc2ccc(C(F)(F)F)cc2)nc1Nc1ccc(C(F)(F)F)cc1` [Compound R926016], the IC50 is above 10 µM.

`Cc1cc(CNc2nc(Nc3cccc(O)c3)ncc2F)c(C)o1` [Compound R945151]: the IC50 was above 10 µM.

With `CC(C)(CO)c1ccc(Nc2nc(Nc3cccc(OCCO)c3)ncc2F)cc1` [Compound R935161], it took 3.13 µM to reach half-maximal inhibition (IC50).

`Oc1cccc(Nc2ncc(F)c(Nc3ccc(Cl)nc3)n2)c1` [Compound R927018] returned an IC50 of 17.7 µM.

`c1ccc(-c2cc(Nc3ccc4c(c3)OCCO4)nc(Nc3ccc4c(c3)OCCO4)n2)cc1` [Compound R925811] gave an IC50 above 10 µM.

Take `CCOc1ccc(Nc2ccnc(Nc3ccc(OCC)cc3)n2)cc1` [Compound R926069]: the IC50 was determined as 4.31 µM.

In turn, `Oc1ccc(Nc2ncc(F)c(Nc3ccc(O)cc3)n2)cc1` [Compound R926405] gave an IC50 of 7.62 µM.

The compound `Cc1cc(O)cc(N(c2ccc3c(c2)OCCO3)c2nc(N)ncc2F)c1` [Compound R926893] gave an IC50 above 10 µM.

For the compound `CCOc1ccc(Nc2ncc(F)c(Nc3ccc(OC)c(OC)c3)n2)cc1` [Compound R926145], it took 17.7 µM to reach half-maximal inhibition (IC50). This counts as double-digit micromolar.

On to `Cc1cc(Nc2ncc(F)c(Nc3cccc(C(C)(C)C)c3)n2)cc(Cl)c1O` [Compound R940271], for which the IC50 was above 10 µM.

As to `OCc1cc2cc(Nc3ncc(F)c(Nc4cccc(O)c4)n3)ccc2o1` [Compound R926707], the IC50 was 2.68 µM.

Consider `CCOC(=O)c1cccc(Nc2ncc(F)c(Nc3ccc4c(c3)OCCO4)n2)c1` [Compound R925745], for which the IC50 is above 10 µM.

`CC(C)Oc1ccc(Nc2ncc(F)c(Nc3cccc(N)c3)n2)cc1` [Compound R950165] registered an IC50 of 7.59 µM.

For the compound `Fc1cnc(Nc2ccc(Cl)c(C(F)(F)F)c2)nc1Nc1ccc(Cl)c(C(F)(F)F)c1` [Compound R926039], the IC50 is above 10 µM.

With `CC(C)c1ccc(O)cc1Nc1ncc(F)c(Nc2cc(O)ccc2C(C)C)n1` [Compound R935077], the IC50 was above 10 µM.
